{"source": "patent US20160051579A1", "about": "“NITRIC OXIDE TREATMENT OF BOVINE RESPIRATORY DISEASE COMPLEX AND OTHER RESPIRATORY CONDITIONS” (Bovicor Pharmatech, Inc., priority 2014, published 2016)", "key": {"[1]": {"settings": "cited from earlier work"}, "BRDc": {"system": "BRDc", "assay": "Commercial feedlot trial NORS vs Micotil: BRDc incidence, relapse, mortality", "type": "in vivo, beef calves", "description": "Commingled, multi-sourced, mixed-breed beef calves were purchased from auction markets for these studies. […] Animals identified for the study were to be approximately 6 months old with an estimated initial mean body weight of between 400-600 lbs. All animals were transported via commercial cattle liners to the feedlot. […] After a 24-hour acclimatization period, the calves were screened, enrolled, randomized, processed, weighed, and temperature measured with blood samples taken by a veterinarian.\n(§1) NORS was delivered with a spray device specifically designed for the study. […] Animals in the control cohort received an injection of Micotil® of 2 mL/100 lb.\nAnimals identified by the pen keepers as appearing to be sick were “pulled” and brought into a barn. The animal was then placed in a catch chute and assessed by a veterinarian, who was blinded to the study, and assigned a clinical score to each animal.\nBRDc was diagnosed as positive based on temperature greater than 103.5° F. and a clinical pulmonary score of 3 or greater.\nAt day 150, all animals were assessed for average daily weight gain and recorded.\nAnimals that died during the first 35 days of the study, for any reason, were sent for pathology testing (done by a board certified, blinded, veterinary pathologist). The following sections were tested: Lungs (left anterior, left middle, left caudal, right anterior, right middle, right caudal), heart, nasal mucosa, pharynx, Retropharyngeal L.N. and trachea. Diagnosis for the cause of death was determined by the pathologist.\nDeaths of animals from day 35 to 150 were recorded and the farm's pathologist identified the cause of death.\nIn order to evaluate the difference in BRDc positive rates between NORS and Micotil® treated animals, a non-inferiority analysis was conducted. Specifically, the null hypothesis that the BRDc positive rate in the Bovinex group (pB) is more than 7.5% higher than the rate in the Micotil® group (pM) was tested using a nonparametric bootstrap: • H0: pB−pM≧7.5% • vs. • H1: pB−pM<7.5%"}, "[2]": {"assay": "Commercial feedlot trial NORS vs Micotil: weight gain", "type": "in vivo, beef calves", "procedure": "as §1\nDuring the follow-up period (day 35 to day 60), relapses requiring antibiotic intervention were recorded as part of the normal feedlot routine. At day 150, all animals were assessed for average daily weight gain and recorded.\nIn order to evaluate the effect of treatment on 35-day weight change, a linear mixed effects model was fit to the data. Specifically, the effect of treatment on weight change was evaluated while controlling for baseline weight (fixed effect) and pen (random effect). Confidence intervals are based on the linear mixed effects model and account for the possibility of correlation of animals grouped together within the same pen."}, "[3]": {"system": "Trichophyton mentagrophytes", "assay": "Antifungal efficacy of NORS, mycelial viability", "type": "cell-based", "settings": "0.14% sodium nitrite (pH 6) or citric acid at pH 3.7 alone, 30-minute exposure"}, "Trichophyton rubrum": {"system": "Trichophyton rubrum", "assay": "Antifungal efficacy of NORS, mycelial viability", "type": "cell-based", "settings": "0.14% sodium nitrite (pH 6) or citric acid at pH 3.7 alone, 30-minute exposure"}, "[4]": {"settings": "in vivo; cited from earlier work"}}, "note": "Entries after “also recorded” stand apart in the source; their conditions may differ.", "data": [{"smiles": "[N]=O", "note": "[NO, Nitric Oxide]", "values": [{"measurement": "half-life in the body", "setting": "[1]", "value": "less than 6 s"}]}, {"smiles": "CC[C@H]1OC(=O)C[C@@H](O)[C@H](C)[C@@H](O[C@@H]2O[C@H](C)[C@@H](O)[C@H](N(C)C)[C@H]2O)[C@@H](CCN2C[C@H](C)C[C@H](C)C2)C[C@@H](C)C(=O)/C=C/C(C)=C/[C@@H]1CO[C@@H]1O[C@H](C)[C@@H](O)[C@@H](OC)[C@H]1OC", "note": "[antibiotic, tilmicosin]", "values": [{"measurement": "# of BRDc positive animals", "setting": "BRDc; Pen B2", "value": 1}, {"measurement": "% of BRDc positive animals", "setting": "BRDc; Pen B2", "value": 0.7, "unit": "%"}, {"measurement": "# of BRDc positive animals", "setting": "BRDc; Pen B6", "value": 5}, {"measurement": "% of BRDc positive animals", "setting": "BRDc; Pen B6", "value": 3.7, "unit": "%"}, {"measurement": "# of BRDc positive animals", "setting": "BRDc; Pen C3", "value": 3}, {"measurement": "% of BRDc positive animals", "setting": "BRDc; Pen C3", "value": 2.2, "unit": "%"}, {"measurement": "# of BRDc positive animals", "setting": "BRDc; Pen C7", "value": 8}, {"measurement": "% of BRDc positive animals", "setting": "BRDc; Pen C7", "value": 6.2, "unit": "%"}, {"measurement": "BRDc related deaths as diagnosed by the feedlot", "setting": "BRDc; day 35-150", "value": 3}, {"measurement": "animals that died", "setting": "BRDc; day 35-150", "value": 12}, {"measurement": "animals that died", "setting": "BRDc; during the 35 days of the study", "value": 8}, {"measurement": "animals pulled for suspected illness", "setting": "BRDc; first 35 days", "value": "Thirty-three"}, {"measurement": "number of relapses", "setting": "BRDc; followed until day 150", "value": 10}, {"measurement": "# of BRDc positive animals", "setting": "BRDc; total of cohort, 35 days", "value": 17}, {"measurement": "% of BRDc positive animals", "setting": "BRDc; total of cohort, 35 days", "value": 3.2, "unit": "%"}, {"measurement": "average daily gain", "setting": "[2]; 35 days", "value": 2.0, "unit": "lbs/day"}, {"measurement": "average 35-day weight gain", "setting": "[2]; baseline weight of 554 lbs", "value": 70, "unit": "lbs"}, {"measurement": "average daily gain", "setting": "[2]; day 150", "value": 2.61, "unit": "lbs"}, {"measurement": "average gain", "setting": "[2]; day 150", "value": 392, "unit": "lbs"}, {"measurement": "additional weight gain relative to those treated with NORS", "setting": "[2]; over 35 days", "value": 5.5, "unit": "lbs"}]}, {"smiles": "O=C(O)CC(O)(CC(=O)O)C(=O)O", "note": "[citric acid]", "values": [{"measurement": "effect of single component on mycelial growth", "setting": "[3]", "value": "Minimal to no effect; also recorded: no significant effect"}, {"measurement": "effect of single component on mycelial growth", "setting": "Trichophyton rubrum", "value": "Minimal to no effect; also recorded: no significant effect"}]}, {"smiles": "O=NO", "note": "[sodium nitrite]", "values": [{"measurement": "effect of single component on mycelial growth", "setting": "[3]", "value": "Minimal to no effect"}, {"measurement": "effect of single component on mycelial growth", "setting": "[3]; listed as nitrites", "value": "no significant effect"}, {"measurement": "effect of single component on mycelial growth", "setting": "Trichophyton rubrum", "value": "Minimal to no effect"}, {"measurement": "effect of single component on mycelial growth", "setting": "Trichophyton rubrum; listed as nitrites", "value": "no significant effect"}]}, {"smiles": "CCCNC[C@]1(O)[C@H](C)O[C@@H](O[C@H]2[C@H](C)[C@@H](O[C@@H]3O[C@H](C)C[C@H](N(C)C)[C@H]3O)[C@](C)(O)C[C@@H](C)CN[C@H](C)[C@@H](O)[C@](C)(O)[C@@H](CC)OC(=O)[C@@H]2C)C[C@@]1(C)OC", "note": "[tulathromycin]", "values": [{"measurement": "time remaining in the pulmonary system", "setting": "[4]", "value": "≤ 28", "unit": "days"}]}]}
